According to PubChem BioAssay AID330 (DTP/NCI, 2004):
Several values for one entry are separate records, joined by “and”; a condition that tells them apart may be missing. Equal values may be shown once. Inconclusive results and toxic doses are left out. The calls were made as follows: active = survival T/C of 150% or more; inactive = T/C below 125% in these data. Square brackets hold non-standard residues; d marks the D form. Peptide text beside a SMILES is read from it. * marks the point of attachment. ξ: configuration not given here. Cbz = O=C(OCc1ccccc1)*; ξNva = CCCC(N)C(=O)O

Test system: P388 leukemia ip, CD2F1 mice, survival T/C
Assay: NCI In Vivo Anticancer Drug Screen. Data for tumor model P388 Leukemia (intraperitoneal) in CD2F1 (CDF1) mice
Conditions: endpoint: median survival time, higher = longer survival
How it was run: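 Mice carrying the transplanted tumor received test compound or vehicle. Survival was recorded in each group, and the value is the treated-group measurement divided by that of the vehicle-treated control group.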

[1] = dose: 50.0 mg/kg/injection, schedule: Q01DX005 (ip), vehicle: saline with Tween-80
[2] = dose: 100.0 mg/kg/injection, schedule: Q01DX005 (ip), vehicle: saline with Tween-80
[3] = dose: 200.0 mg/kg/injection, schedule: Q01DX005 (ip), vehicle: saline with Tween-80
[4] = dose: 50.0 mg/kg/injection, schedule: Q01DX009 (ip), vehicle: saline with Tween-80
[5] = dose: 100.0 mg/kg/injection, schedule: Q01DX009 (ip), vehicle: saline with Tween-80
[6] = dose: 60.0 mg/kg/injection, schedule: Q01DX005 (ip), vehicle: saline with Tween-80
[7] = dose: 240.0 mg/kg/injection, schedule: Q01DX005 (ip), vehicle: saline with Tween-80
[8] = dose: 50.0 mg/kg/injection, schedule: Q01DX005 (ip), vehicle: Klucel (hydroxypropylcellulose) (HPC)
[9] = dose: 100.0 mg/kg/injection, schedule: Q01DX005 (ip), vehicle: Klucel (hydroxypropylcellulose) (HPC)
[10] = dose: 100.0 mg/kg/injection, schedule: Q04DX003 (ip), vehicle: saline with Tween-80
[11] = dose: 200.0 mg/kg/injection, schedule: Q04DX003 (ip), vehicle: saline with Tween-80
[12] = dose: 120.0 mg/kg/injection, schedule: Q01DX005 (ip), vehicle: saline with Tween-80

Measured: T/C

CC(=O)Nc1ccc(S(=O)(=O)c2ccc([N+](=O)[O-])s2)cc1
inactive: dose: 25.0 mg/kg/injection, schedule: Q04DX003 (ip), vehicle: Klucel (hydroxypropylcellulose) (HPC) 105 % of control | dose: 50.0 mg/kg/injection, schedule: Q04DX003 (ip), vehicle: Klucel (hydroxypropylcellulose) (HPC) 102 % of control

CC(C)(C)OC(=O)NC(CCC(N)=O)C(=O)ON1C(=O)CCC1=O (configuration not stated)
inactive: [1] 98 % of control | [2] 99 % of control | [3] 104 % of control

Cc1c(F)cccc1[N+](=O)[O-]
inactive: [4] 104 % of control | [5] 114 % of control | dose: 200.0 mg/kg/injection, schedule: Q01DX009 (ip), vehicle: saline with Tween-80 123 % of control

Cc1ccc(C2OC3=C(Nc4ccc([N+](=O)[O-])cc4N3)C2=O)cc1 (configuration not stated)
inactive: dose: 60.0 mg/kg/injection, schedule: Q01DX005 (ip), vehicle: Klucel (hydroxypropylcellulose) (HPC) 90 % of control | dose: 120.0 mg/kg/injection, schedule: Q01DX005 (ip), vehicle: Klucel (hydroxypropylcellulose) (HPC) 93 % of control | dose: 240.0 mg/kg/injection, schedule: Q01DX005 (ip), vehicle: Klucel (hydroxypropylcellulose) (HPC) 96 % of control

COC(=O)C(CNc1ccc(S(N)(=O)=O)cc1)=[N+]=[N-]
inactive: dose: 6.25 mg/kg/injection, schedule: Q01DX009 (ip), vehicle: saline 98 % of control | dose: 12.5 mg/kg/injection, schedule: Q01DX009 (ip), vehicle: saline 97 % of control | dose: 25.0 mg/kg/injection, schedule: Q01DX009 (ip), vehicle: saline 91 % of control | dose: 100.0 mg/kg/injection, schedule: Q01DX009 (ip), vehicle: saline 100 % of control | dose: 200.0 mg/kg/injection, schedule: Q01DX009 (ip), vehicle: saline 99 % of control

Cn1c(=S)[nH]c2scc(-c3ccccc3)c2c1=O
inactive: [6] 87 % of control | [7] 96 % of control

Cc1ccccc1N1C(=O)C(C)(C)OC1=S
inactive: [1] 97 % of control | [2] 99 % of control | [3] 103 % of control

NC(CCCCNC(=S)S)C(=O)O.[Na+].[Zn+2] (configuration not stated)
inactive: dose: 12.5 mg/kg/injection, schedule: Q01DX005 (ip), vehicle: Klucel (hydroxypropylcellulose) (HPC) 102 % of control | dose: 25.0 mg/kg/injection, schedule: Q01DX005 (ip), vehicle: Klucel (hydroxypropylcellulose) (HPC) 102 % of control | [8] 102 % of control and 107 % of control and 114 % of control | [9] 109 % of control and 120 % of control (2×)

CCCCCCCCCCCC(=O)NN
inactive: [4] 95 % of control | [10] 100 % of control | [11] 100 % of control

C=C(C)C(=NC(C)(C)C)N1CCCCC1
inactive: [8] 100 % of control | [9] 102 % of control

C[Si](C)(C)C1=CC[C@H]2C(=O)N(c3ccccc3)C(=O)[C@H]2C1=O
inactive: [1] 107 % of control | [2] 118 % of control | [3] 111 % of control

C=C1C(=O)OC2C1CCC(C)=C1CCC(C)(O)C12 (configuration not stated)
inactive: dose: 5.0 mg/kg/injection, schedule: Q01DX009 (ip), vehicle: saline with Tween-80 97 % of control | dose: 10.0 mg/kg/injection, schedule: Q01DX009 (ip), vehicle: saline with Tween-80 105 % of control | dose: 20.0 mg/kg/injection, schedule: Q01DX009 (ip), vehicle: saline with Tween-80 107 % of control | dose: 40.0 mg/kg/injection, schedule: Q01DX009 (ip), vehicle: saline with Tween-80 107 % of control

COC(=O)C1=C(C(=O)OC)C2CCCOC2=C(C)C1 (configuration not stated)
inactive: [1] 96 % of control | [2] 95 % of control | [3] 93 % of control

O=C1OC(=O)C2c3ccccc3C=CC12 (configuration not stated)
inactive: dose: 25.0 mg/kg/injection, schedule: Q01DX001 (ip), vehicle: saline with Tween-80 98 % of control | dose: 50.0 mg/kg/injection, schedule: Q01DX001 (ip), vehicle: saline with Tween-80 98 % of control | dose: 100.0 mg/kg/injection, schedule: Q01DX001 (ip), vehicle: saline with Tween-80 104 % of control | dose: 200.0 mg/kg/injection, schedule: Q01DX001 (ip), vehicle: saline with Tween-80 120 % of control | dose: 400.0 mg/kg/injection, schedule: Q01DX001 (ip), vehicle: saline with Tween-80 113 % of control

Nc1nc(N)c2c(ccc3c2ccn3Cc2cccc([N+](=O)[O-])c2)n1
inactive: dose: 1.56 mg/kg/injection, schedule: Q01DX005 (ip), vehicle: saline with Tween-80 100 % of control and 119 % of control | dose: 3.12 mg/kg/injection, schedule: Q01DX005 (ip), vehicle: saline with Tween-80 110 % of control

Cc1nc(N(C)C)oc(=O)c1CCc1ccccc1
inactive: [6] 102 % of control | [12] 102 % of control | [7] 100 % of control

CC1=CC(Cc2ccccc2)N(C)C(C(N)=O)C1 (configuration not stated)
inactive: [8] 102 % of control | [9] 101 % of control

CCn1c2ccc(N)cc2c2c(N)c(-n3cccc3)ccc21
inactive: [1] 100 % of control | [2] 100 % of control | [3] 100 % of control

CN1CCCCC1Cc1ccccc1 (configuration not stated)
inactive: dose: 6.25 mg/kg/injection, schedule: Q01DX005 (ip), vehicle: saline 103 % of control | dose: 12.5 mg/kg/injection, schedule: Q01DX005 (ip), vehicle: saline 102 % of control | dose: 25.0 mg/kg/injection, schedule: Q01DX005 (ip), vehicle: saline 100 % of control

CCOC(=O)[C@@H](F)[C@H](Br)C(=O)OCC
inactive: [4] 100 % of control and 110 % of control | [5] 113 % of control and 122 % of control

O=S(=O)(OC1=CCCCCC1)C(F)(F)F
inactive: dose: 50.0 mg/kg/injection, schedule: Q01DX009 (ip), vehicle: olive oil, sesame oil, peanut oil 106 % of control | dose: 100.0 mg/kg/injection, schedule: Q01DX009 (ip), vehicle: olive oil, sesame oil, peanut oil 91 % of control | dose: 200.0 mg/kg/injection, schedule: Q01DX009 (ip), vehicle: olive oil, sesame oil, peanut oil 114 % of control

CCCC(NC(=O)CNC(=O)OCc1ccccc1)C(=O)O (stereo not drawn) (Cbz-Gly-[ξNva]-OH)
inactive: [8] 104 % of control | [9] 98 % of control

CCOC(=O)/C(=C(\C)N)n1[nH]c(=O)ccc1=O
inactive: dose: 100.0 mg/kg/injection, schedule: Q04DX002 (ip), vehicle: saline 98 % of control | dose: 200.0 mg/kg/injection, schedule: Q04DX002 (ip), vehicle: saline 100 % of control | dose: 400.0 mg/kg/injection, schedule: Q04DX002 (ip), vehicle: saline 100 % of control

COc1ccc(-n2c(C)nc3ccccc3c2=O)cc1CN(CCCl)CCCl
inactive: dose: 25.0 mg/kg/injection, schedule: Q04DX002 (ip), vehicle: saline with Tween-80 97 % of control | dose: 50.0 mg/kg/injection, schedule: Q04DX002 (ip), vehicle: saline with Tween-80 109 % of control | dose: 100.0 mg/kg/injection, schedule: Q04DX002 (ip), vehicle: saline with Tween-80 100 % of control

O=C1c2ccccc2C(=O)N1CCc1ccccc1Br
inactive: [8] 104 % of control | [9] 96 % of control

C[Si](C)(C)CC[Si]12OCCN(CCO1)C1CCCCC1O2 (configuration not stated)
inactive: [8] 93 % of control | [9] 101 % of control | dose: 200.0 mg/kg/injection, schedule: Q01DX005 (ip), vehicle: Klucel (hydroxypropylcellulose) (HPC) 97 % of control

CCC1=CC2CN(CCc3c([nH]c4ccccc34)C(C(=O)OC)(c3cc4c(cc3OC)N(C)C3C(C(=O)OC)=CC5(CC)CCCN6CCC43C65)C2)C1 (configuration not stated)
inactive: dose: 12.5 mg/kg/injection, schedule: Q01DX001 (ip), vehicle: water 100 % of control | dose: 25.0 mg/kg/injection, schedule: Q01DX001 (ip), vehicle: water 100 % of control | dose: 50.0 mg/kg/injection, schedule: Q01DX001 (ip), vehicle: water 112 % of control | dose: 100.0 mg/kg/injection, schedule: Q01DX001 (ip), vehicle: water 100 % of control | dose: 200.0 mg/kg/injection, schedule: Q01DX001 (ip), vehicle: water 100 % of control

COc1nc(NC2OC(COC(C)=O)C(OC(C)=O)C(OC(C)=O)C2OC(C)=O)c(C(=O)CCl)c(=O)[nH]1 (configuration not stated)
inactive: [6] 93 % of control | [12] 90 % of control | [7] 101 % of control

Cc1ccc(Cl)cc1NS(=O)(=O)c1ccc2ccccc2c1
inactive: [10] 100 % of control | [11] 109 % of control | dose: 400.0 mg/kg/injection, schedule: Q04DX003 (ip), vehicle: saline with Tween-80 104 % of control
